The source of these data is PubChem BioAssay AID463229 (Broad Institute, 2010).

In the assay the test system is INS-1E rat beta cells, no cytokines, CellTiter-Glo ATP, 48 h. The assay can be described thus: ATP level change in INS-1E without cytokines, dose response, counter-screen for beta-cell apoptosis protection project, INS-1E rat cells, ATP luminescence, cherry pick (AID 463229). For orientation: A counterscreen serves to expose hits that act by an unwanted route or on another target.
For the compound `Nc1nonc1-n1nnc(C(=O)N/N=C/c2cc(Br)ccc2O)c1CNc1ccccc1`, the AC50 (commonly the midpoint of the concentration-response curve, whichever way the signal moves) was 8.29 µM.
Take `Cc1cc(N/N=C/c2c(O)ccc3ccccc23)nc(-c2ccccc2O)n1`: the AC50 is 11.7 µM.
The value for `CN(C)S(=O)(=O)c1cccc(CSCc2cccc(S(=O)(=O)N(C)C)c2)c1` was 7.78 µM.
With `Cc1ccccc1OCc1n(CC(=O)OC2CC(C)CCC2C(C)C)c2ccccc2[n+]1C` (stereo unspecified), the AC50 is 4.05 µM.
Turning to `COc1ccccc1N1CCN(Cc2ccc(O)c3ncccc23)CC1`, the AC50 was 5.14 µM.
For the compound `O=C(/C(=C/c1ccc(Cl)cc1)c1nc2ccccc2[nH]1)c1ccccc1`, the AC50 was 4.04 µM.
Regarding `O=C(CSC1=NCCS1)Nc1ccnc2ccccc12`, the AC50 was 12.5 µM.
On to `CCCOc1nc2c(c(=O)n(C)c(=O)n2C)n1Cc1cccc2ccccc12`, for which the AC50 is 14.4 µM.
As to `COc1ccc(CNCCC(c2ccc(OC(C)C)cc2)C(C)C)cc1OC` (stereo unspecified), the AC50 was 15 µM.
`COc1ccc(CCNc2ccc(C(CC(N)=O)NC(=O)c3ccc(Br)cc3)cc2[N+](=O)[O-])cc1` (stereo unspecified): the half-maximal activity concentration (AC50) was 16.8 µM.
Take `Cc1sc2ncnc(N3CCN(S(=O)(=O)c4ccc(C(C)(C)C)cc4)CC3)c2c1C`: the AC50 is 4.17 µM.
In the case of `O=[N+]([O-])c1ccc(O)c(-c2cc(C(F)(F)F)nc(-c3ccccc3)n2)c1`, the AC50 was 1.59 µM.
Then `CCCCCCC(=O)N1C/C=C\C(c2ccc(OC)cc2)N(Cc2ccc(F)cc2)C(=O)[C@H]1Cc1ccccc1` (stereo partly specified), with 5.73 µM; and `O=C(N/N=C/c1cc([N+](=O)[O-])ccc1O)c1cc(-c2ccccc2)nc2ccccc12`, with 5.78 µM; and `CN(C)CCCN(C(=O)COc1ccc(Cl)cc1)c1nc2cc3c(cc2s1)OCO3`, with 15.6 µM.
Then `Cc1nnc(N=c2ssnc2Cl)o1`, with 13.6 µM.
Regarding `Cc1ccc(C(=O)OCn2ncc(Cl)c(Cl)c2=O)cc1`, the AC50 is 7.77 µM.
Regarding `COc1ccc(-c2c[n+](CC(=O)OC3CC(C)CCC3C(C)C)c3n2CCC3)cc1` (stereo unspecified), the AC50 was 1.87 µM.
For the compound `CCCOc1ccc(Br)cc1CSC(=N)N`, the half-maximal activity concentration (AC50) is 8.01 µM.
For `CC(C)(C)OC(=O)NCCCCCc1cn([C@@H](CO)C(=O)NCCCCCCCCCCC(=O)N2CCN(C(=O)OC(C)(C)C)CC2)nn1`, the half-maximal activity concentration (AC50) was 7.05 µM.
Regarding `CCOc1ccc(S(=O)(=O)N2CCCCC2)cc1NC(=O)CN1CCCC1c1cccs1` (stereo unspecified), the concentration at half-maximal activity (AC50) is 5.24 µM.
Then `Cc1[nH]n(-c2ccccc2)c(=O)c1/C=N/Nc1nncc(-c2ccccc2)n1`, with 1.22 µM; and `C#CCOCCOCCOCCNc1nc(N2CCN(C(=O)CCCCCCCCCCNC(=O)[C@H](CCCCN)n3cc(C)nn3)CC2)nc(N2CCN(C(=O)CCCCCCCCCCNC(=O)[C@@H]([C@H](C)CC)n3cc(CCCCCN)nn3)CC2)n1`, with 6.78 µM; and `CCn1c(SCC(=O)Nc2cc(C)on2)nc2sc3c(c2c1=O)CCCC3`, with 16.7 µM.
Then `Cc1ccc(NS(=O)(=O)c2ccc(NC(=O)CN(c3cc([N+](=O)[O-])ccc3C)S(C)(=O)=O)cc2)c(C)c1`, with 1.86 µM; and `N#C/C(N=Nc1ccccc1O)=N\Nc1ccccc1O`, with 4.12 µM.
The value for `Cc1ccc(N=Nc2c(O)ccc3n[nH]nc23)cc1` was 4.37 µM; that for `Nc1c(C(=O)Nc2ccc(S(=O)(=O)N3CCCC3)cc2)sc2nc3ccc(OC(F)(F)F)cc3cc12` was 5.29 µM.
On to `CCC(Sc1nc(C)cc(C)n1)C(=O)NC1=NN=C(c2ccc(C)cc2)CS1` (stereo unspecified), for which the AC50 is 2.14 µM.
As to `Fc1ccc(C[n+]2c(-c3ccccc3)cc(-c3ccccc3)cc2-c2ccccc2)cc1`, the AC50 is 3.99 µM.
Turning to `CCc1nnc(NC(=O)c2cccc(C(=O)Nc3nnc(CC)s3)n2)s1`, the AC50 was 2.98 µM.
As to `CNC(=O)c1sc(N2N=C3/C(=C/c4ccccc4)CCCC3C2c2ccccc2)nc1C` (stereo unspecified), the AC50 was 5.11 µM.
For the compound `COc1ccccc1C(NC(C)=O)c1cc(Cl)c2cccnc2c1O` (stereo unspecified), the AC50 was 7.24 µM.
Then `CC1(C)Cc2c(c(N3CCOCC3)nc3sc4c(NN)ncnc4c23)CS1`, with 6.38 µM; and `COc1cnc(-c2ccccn2)nc1Oc1ccc(Cl)c2ccccc12`, with 15.3 µM.
For the compound `Cc1nc2ccccc2n1Cc1ccc(Br)cc1`, the AC50 was 5.63 µM.
As to `CNc1nc2cc([N+](=O)[O-])c([N+](=O)[O-])cc2nc1NC`, the AC50 is 0.278 µM.
Take `COc1ccc(NS(=O)(=O)c2ccc(-c3coc(C)n3)cc2)cc1OC`: the half-maximal activity concentration (AC50) was 4.39 µM.
On to `CCCCCn1c(=O)c(C(=O)Nc2nc3ccccc3[nH]2)c(O)c2ccccc21`, for which the AC50 is 7.03 µM.
The value for `O=C(N/N=C/c1cc(Cl)ccc1O)c1ccccc1Br` was 8.9 µM.
Then `COc1cccc(C(=O)N/N=C(/c2ccccc2)c2ccccn2)c1`, with 3.73 µM; and `COc1ccc(-c2cn(Cc3ccc(C(=O)c4ccccc4)cc3)nn2)cc1`, with 11.6 µM.
Then `O=C(CSc1nnc(Cn2nnc3ccccc32)o1)N(Cc1ccc(F)cc1)c1ccccc1`, with 7.94 µM; and `N#C/C(=C/c1ccc(N2CCCCCC2)o1)c1ccc(Cl)cc1`, with 24.3 µM.
Consider `Cc1csc2c(N3CCN(C(=O)c4ccc(C(C)(C)C)cc4)CC3)ncnc12`, for which the AC50 is 14.9 µM.
Take `COc1nc(Nc2nc3ccccc3c(=O)[nH]2)nc2ccc(C)cc12`: the AC50 was 2.31 µM.
Then `Cc1cc(C)n(CCC(=O)N/N=C/c2c(O)ccc3ccccc23)n1`, with 9.78 µM; and `Cc1cc(C)c2sc(NNC(=O)c3ccc(S(=O)(=O)N4CCc5ccccc5C4)cc3)nc2c1`, with 3.38 µM.
`Clc1ccc(-c2cc(-c3nnc4n3CCCCC4)c3ccccc3n2)cc1`: the half-maximal activity concentration (AC50) is 4.91 µM.
In the case of `Cn1c(SCC(=O)N/N=C/c2ccc([N+](=O)[O-])s2)nnc1-c1ccccc1`, the AC50 was 5.11 µM.
The value for `O=[N+]([O-])c1c(Nc2ccccn2)cc(Cl)c2nonc12` was 7.39 µM.
As for `COc1ccc(CCNc2ncnc3sc(C)cc23)cc1OC`, the AC50 was 1.33 µM.
In the case of `c1ccc2c(c1)ncn2CCCCOc1ccc2c(c1)CCC2`, the AC50 is 7.37 µM.
Take `CC(C)(C)c1ccc(C(O)CCCN2CCC(C(O)(c3ccccc3)c3ccccc3)CC2)cc1` (stereo unspecified): the AC50 is 8.16 µM.
As for `CC(C)(C)c1cc(C=C(C#N)C#N)cc(C(C)(C)C)c1O`, the AC50 was 0.984 µM.
Then `COc1ccc(C(CCN2CCCCC2)c2c(OC)cc(OC)c3c(-c4ccccc4)cc(=O)oc23)cc1` (stereo unspecified), with 14.1 µM; and `COc1ccc(/C=N/Nc2cc(C)nc3ccc(Br)cc23)cc1`, with 7.02 µM; and `Cc1ccc(C(C)C)c(OCc2nn(CC(=O)c3ccc(Cl)cc3)c3[n+]2CCCCC3)c1`, with 4.55 µM.
With `CC1(C)N=C(N)N=C(N)N1c1ccc(OCCCOc2ccccc2)c(Cl)c1`, the AC50 is 0.913 µM.
As for `COc1ccc([N+](=O)[O-])c(S(=O)(=O)c2ccccc2)n1`, the AC50 was 7.36 µM.
Take `CC(C)(C)c1ccc(C2CC2C(=O)N/N=C\c2ccc[nH]2)cc1` (stereo unspecified): the concentration at half-maximal activity (AC50) was 0.987 µM.
Then `O=C(Nc1nc2ccccc2[nH]1)c1ccccc1F`, with 2.14 µM; and `COc1ccccc1N1CCN(Cc2cc(Br)c(O)c3ncccc23)CC1`, with 5.72 µM.
Take `C=C(C(=O)c1ccccc1)C(C)C(=C)C(=O)c1ccccc1`: the AC50 is 7.84 µM.
Consider `Clc1cc2cccnc2c2ncccc12`, for which the AC50 was 15 µM.
Take `O=C(CNc1ccc(F)cc1)N/N=C/c1c(O)ccc2ccccc12`: the AC50 is 19.5 µM.
In the case of `Oc1cccc(C(Nc2nccs2)c2ccc3cccnc3c2O)c1` (stereo unspecified), the AC50 was 2.54 µM.
As to `CN(C)S(=O)(=O)c1cccc(NC(=S)N/N=C/c2cc(Br)ccc2O)c1`, the AC50 was 2.72 µM.
With `COCCNc1nc2c(c(=O)n(C)c(=O)n2C)n1Cc1cccc(C(F)(F)F)c1`, the concentration at half-maximal activity (AC50) is 12.1 µM.
`OCc1ccc(O)c2ncccc12`: the concentration at half-maximal activity (AC50) was 2.38 µM.
As for `CC(=O)NC(c1ccco1)c1cc(F)c2cccnc2c1O` (stereo unspecified), the AC50 was 10.6 µM.
Then `CCn1c(C)nc2cc(-c3nnc(-c4c(-c5ccccc5)noc4C)o3)ccc21`, with 5.18 µM.
As to `COc1cc(OC)c2cc(C(=O)N/N=C/c3cccc(OC)c3O)[nH]c2c1`, the AC50 was 15.5 µM.
On to `Cc1ccc(-c2cc(-c3ccc(C)cc3)[n+](-c3ccccc3)c(-c3ccc(C)cc3)c2)cc1`, for which the half-maximal activity concentration (AC50) is 0.577 µM.
Then `CCN(CC)c1ccc(/C=N/NC(=O)c2ccoc2C)c(O)c1`, with 2.04 µM; and `N=c1c2c(n(Cc3cccc(Cl)c3)c3c1CCC3)CCCC2`, with 7.28 µM; and `O=C(/C=C/c1cccc(Cl)c1)c1ccc([N+](=O)[O-])o1`, with 3.68 µM.
As to `O=C(Nc1cccnc1)c1cccs1`, the AC50 was 1.86 µM.
The value for `COc1ccc2cc(C(=O)N/N=C/c3sc4ccccc4c3O)ccc2c1` was 7.3 µM.
In the case of `Oc1ccc(Br)cc1/C=N/Nc1ccccn1`, the half-maximal activity concentration (AC50) is 4.28 µM.
For the compound `O=C(C#Cc1ccccc1)Nc1cccc(F)c1`, the AC50 was 11.8 µM.
The value for `CCC(=O)NC(c1cccs1)c1cc(Cl)c2cccnc2c1O` (stereo unspecified) was 5.49 µM; that for `CC(CC(=O)N1CCN(c2cccc(Cl)c2)CC1)S(=O)(=O)c1ccc2c(c1)NC(=O)CO2` (stereo unspecified) was 7.1 µM.
For `Cn1nc(C(C)(C)C)cc1C(=O)NCc1ccc2c(c1)OCO2`, the AC50 is 4.47 µM.
With `COc1ccccc1NC1=C(N2CCCCC2)C(=O)c2ccccc2C1=O`, the half-maximal activity concentration (AC50) is 2.21 µM.
For the compound `CC[C@]1(c2ccccc2OC)ON(c2ccccc2C(F)(F)F)C1=O`, the AC50 was 4.55 µM.
`CCOc1ccc2nc(NC(=O)c3cccc(-c4cc5ccccc5oc4=O)c3)sc2c1`: the AC50 is 3.31 µM.
As for `Cc1ccc(C)c(S(=O)(=O)N2CCN(Cc3ccc(O)c4ncccc34)CC2)c1`, the AC50 was 5.74 µM.
For `CC1C/C(=C/c2ccncc2)C(=O)/C(=C/c2ccncc2)C1` (stereo unspecified), the AC50 was 4.62 µM.
As for `COc1cccc(/C=N/NC(=O)c2ccc(-c3ccccc3)cc2)c1O`, the AC50 was 13.1 µM.
As for `COc1ccccc1C(=O)Nc1nc(-c2ccc(S(=O)(=O)N3CCOCC3)cc2)cs1`, the AC50 was 5.29 µM.
Turning to `O=c1cc(N2CCN(c3cccc(Cl)c3)CC2)[nH]c(=O)n1C1CCCCC1`, the half-maximal activity concentration (AC50) was 1.66 µM.
In the case of `Cc1ccccc1OCCn1c(C)nc2ccccc21`, the AC50 was 15.2 µM.
With `COc1ccc2[nH]c3c(C)c4ccncc4c(C)c3c2c1`, the concentration at half-maximal activity (AC50) is 4.13 µM.
In the case of `O=C(Nc1ccc(OC(F)F)c(Cl)c1)C(c1ccccc1)c1ccccc1`, the half-maximal activity concentration (AC50) was 13 µM.
As to `COc1ccc(-c2cn(-c3ccc(Cl)cc3)c3[n+]2CCCCC3)cc1`, the AC50 is 2 µM.
